From patent publication US12059230B2, “Extending fluorescent assays in vivo for biomedical sensing: wavelength modulation spectroscopy” (MASSACHUSETTS INSTITUTE OF TECHNOLOGY, priority 2019, dated 2024)

Tests used:
[1] = In vitro hydrogel dynamics: sensor response fitted to the diffusion equation; assay type: physicochemical; settings: 10×10×2 mm^3 gel with 20 mg/l (AC)15-SWNTs, 100 μM riboflavin
Description: FIG. 33 depicts in vitro hydrogel dynamics. […] The black curve represents the measured data, while the red line is a fit to the diffusion equation, yielding a diffusion constant of 1.04×10^−6 cm^2/s.
Hydrogel preparation. The nanotube embedded hydrogels were prepared using polyethylene glycol diacrylate from Alfa Aesar using a PEG chain length of 8000 Da (PEG8000DA). The UV triggered initiator was 2-hydroxy-4′-(2-hydroxyethoxy)-2-methylpropiophenone from Sigma Aldrich and was dissolved in a stock solution of 7 mg/mL in water before polymerization. […] The hydrogel precursor solution is held under a flowing N2 atmosphere for 30 minutes to remove dissolved oxygen. After degassing, the solution is pipetted into glass molds and returned to the nitrogen atmosphere. The molds are then exposed to 365 nm UV light (UVP Blak-Ray XX-15BLB) for 45 minutes to polymerize. Afterwards, the hydrogels were removed from the molds and left to incubate in 1×PBS overnight to remove any unreacted monomer to free-floating SWNT. Then the PBS solution was exchanged to a fresh solution and the hydrogels were ready to use.
The interaction between an analyte and the hydrogel sensor is further described with analyte diffusion. The mathematical model solves the following nondimensionalized unsteady diffusion model and boundary conditions: […]

[2] = In vivo sensor response to riboflavin injection in SKH1-E mouse (intraperitoneal implant); settings: 300 μM riboflavin injected through catheter
Excerpt: FIGS. 5A-5H depict in vivo sensing. […] Scale bars are 5 mm. […] Sham stands for gels without a sensor, flipped configuration represents a mouse laying on its back with the signal passing through the full thickness of the animal body. […] The scale bar is 5 mm. […] The single laser excitation was at 730 nm. WIFF system was modulated at 2 Hz between 680, 730, and 780 nm. The emission collection was at >1100 nm.
FIGS. 32A-32B depict sensing experiments with mice. […] Five replicas on biologically independent animals. Sensors (10×10×2 mm^3 gel with 20 mg/l (AC)15-SWNTs)) were implanted into the intraperitoneal space of mice. […] The time t=0 corresponds to the time of injection.
The ultimate goal of fluorescent sensing is to detect analytes in vivo at the implantation point and wirelessly transmit the signal to the surface of the body. […] These types of measurements are critical for many biomedical problems focused on tissue permeability, such as targeted delivery of therapeutics, and changes in vascular permeability related to disorders, either as the origin or manifestation of various diseases. […]

Cc1cc2nc3c(=O)[nH]c(=O)nc-3n(C[C@H](O)[C@H](O)[C@H](O)CO)c2cc1C [riboflavin]
diffusion constant in the hydrogel [1]: 1.04×10^−6 cm^2/s
onset time of quenching after the injection [2]: 51 s
sensor quenching ([2]; intraperitoneal sensor, WIFF): 17%
